Source: US10500197B2, “Use of oligopyridylamides to inhibit mutant p53 amyloid formation and restore its tumor suppressor function” (New York University, priority 2017, dated 2019)
Entries after “also recorded” stand apart in the source; their conditions may differ. Where no end group is shown, it is not given here.

Assays:
HeLa cells = assay: MTS cell viability in HeLa cells; format: cell-based; settings: 5 or 10 μM, 24 hours, serum-free media
Protocol: (§1) MTS assays were performed with Promega CellTiter One MTS solution according to protocol. MIA PaCa-2 cells were seeded at 2,000 cells/well, MCF-7 at 4,000 cells/well, COS-7 at 5,000 cells/well and HeLa at 3,000 cells/well. These values were individually optimized for the assay prior to experimentation. All cells were incubated for 24 hours to allow proper adherence to the well. On treatment day, wells were washed with warm PBS and media was replaced with a serum-free version. If treatment peptides were purified from crude form, they were also filtered using a 0.2 µm filter before introduction to cells. On MTS reading day, media was changed again (serum-free) and 20 μL of MTS was added to each 100 μL well. Cells were incubated at 37° C. for 2 hours before reading absorbance at 490 nm using Synergy H1 (BioTek) equipped with Gen5 software. Background absorbance from control wells was quantified and subtracted from obtained experimental absorbance values.
It has been hypothesized that the ADH compounds may bind to wild-type p53 in a manner that preserves its main function, yet disrupts other protein-protein interactions in the cellular environment. HeLa cells are known to have very low p53 expression levels, which is attributed to the expression of the HPV-E6 protein. E6 proteins target p53 for proteasomal degradation via the ubiquitin pathway by binding to p53's core domain (residues 94-292) and C-terminus. Because it has been hypothesized that the effective ADH compounds (40, 41, and 46) target the p53 DNA-binding domain located in its core region, the compounds may prevent E6 binding, leading to p53 accumulation and eventually apoptosis. […] Since ReACp53 is a sequence-specific peptide that targets the p53 DNA-binding domain, it may also prevent E6 binding through a similar mechanism.

[1] = system: MCF-7 cells (wild-type p53); assay: MTS cell viability in MCF-7 cells; format: cell-based; settings: 5 and 10 μM, 24 hours, serum-free media
Protocol: as §1
(§2) It has been shown that the ADH compounds have no toxic effect on N2a cells, which carry wild-type p53. Their effect on other wild-type p53 cell lines: MCF-7 and COS-7 was further investigated. Cells were incubated with ADH compounds 17, 27, 40, 41 and 46 for 24 hours at 5 and 10 μM in serum-free media before determining cell viability via MTS (FIG. 2).

R248W mutant p53 peptide = R248W mutant p53 peptide (Homo sapiens, UniProt P04637, R248W); assay: Thioflavin T (ThT) assay, inhibition of R248W peptide aggregation; format: biochemical; settings: 1:1 ratio to R248W peptide, 37° C., 10 hours
Protocol: (§3) This fluorescence can be monitored overtime to estimate the increase in beta-sheet structure of incubated peptides, indicating amyloid formation. […] 50 μM ThT was incubated at 37° C. with varying concentrations of peptides and inhibitors to estimate both the aggregation propensity of mutant peptides and the abrogation of aggregation brought about by inhibitor treatment. All samples were sonicated, including the ThT solution, prior to each addition of peptides to ensure the obtainment of clear sigmoidal curves. Fluorescence in transparent-bottom 96-well sample plates was monitored by the cell plate reader Synergy H1 (BioTek).
To test the inhibition efficacy of these peptides, they were subjected to a ThT assay whereby a fixed concentration of R248W was treated with varying concentrations of the respective inhibitor peptide in the presence of ThT dye and buffer. […] It is hypothesized that this effect is due to the relative hydrophobicity of the PAS sequence (FFLIPKG) (FIG. 4B).
10 compounds based on the oligopyridylamide molecular scaffolds have been tested on mutant p53 aggregation models. A ThT assay was used to test the inhibition capability of each compound at a 1:1 ratio to the R248W mutant peptide.

[2] = system: MIA PaCa-2 cells (R248W p53 mutant); assay: MTS cell viability assay in MIA PaCa-2 cells; format: cell-based; settings: 5 and 10 μM, 24 and 48 hours, serum-free media
Protocol: MIA PaCa-2 (CRL-1420) cells, which contain the R248W p53 contact mutant, were obtained from ATCC and cultured in ATCC-formulated Dulbecco's Modified Eagle's Medium supplemented with 10% fetal bovine serum (FBS), 2.5% horse serum, 4% 200 mM L-glutamine and 1% penicillin/streptomycin. A separate stock of serum-free medium was kept for cell viability assays. Cells were split at a 1:3 ratio 2-3 times a week and maintained at 80% confluence and >85% viability. Viability was regularly measured through Trypan Blue dilution correction during cell counting. Cell cultures were stored at 37° C. in T75 coated flasks and kept under 5% CO2.
MTS assays were performed with Promega CellTiter One MTS solution according to protocol. MIA PaCa-2 Cells were seeded at 2,000 cells/well and were incubated for 24 hours to allow proper adherence to the well. On treatment day, wells were washed with warm PBS and media was replaced with a serum-free version. If treatment peptides were purified from crude form, they were also filtered using a 0.2 µm filter before introduction to cells. On MTS reading day, media was changed again (serum-free) and 20 μL of MTS was added to each 100 μL well. Cells were incubated at 37° C. for 2 hours before reading absorbance at 490 nm using Synergy H1 (BioTek) equipped with Gen5 software.
as §1
The two classes of designed peptide inhibitors have been introduced to a cancer cell-line that harbors the R248W p53 mutant, MIA PaCa-29. It has been hypothesized that upon co-localization of the inhibitors with mutant p53, mutant p53 aggregates will be abrogated, resulting in the release of wild-type p53 from cellular inclusions and, eventually, the induction of apoptosis. The 4 designed peptides were introduced to MIA PaCa-2 cells at 5 and 10 μM for 24 and 48 hour incubation periods. MTS assay was used to assess cell viability after treatment, whereby the bio-reduction of the MTS tetrazolium compound results in detectable color change that is proportional to the number of viable cells left in a sample (see Example 1).
MIA PaCa-2 cells were incubated with ADH compounds 17, 27, 31, 37, 39, 40, 41, 45, 46, and 52 (5 and 10 μM) for 24 and 48 hours. Cell viability was determined using the MTS assay.

[3] = system: COS-7 cells (wild-type p53); assay: MTS cell viability in COS-7 cells; format: cell-based; settings: 5 and 10 μM, 24 hours, serum-free media
Protocol: as §1, §2

[4] = biological target: R248W mutant p53 peptide aggregates (Homo sapiens, UniProt P04637, R248W); assay: Multi-step ThT assay, abrogation of pre-formed R248W aggregates; format: biochemical; settings: 50 μM R248W incubated 35 minutes at 37° C., then equimolar ADH compound
Protocol: as §3
Accordingly, a multi-step ThT assay was designed that would evaluate the ability of an inhibitor to abrogate aggregation at different stages of amyloid formation. Based on the sigmoidal curve produced in ThT assays of the R248W peptide, 3 time points were selected to introduce the inhibitor to mutant p53 aggregates. The first would occur at 0 mins, where no R248W aggregates would have been previously formed. The second time point would be approximately 30 mins after aggregation begins, during the exponential increase in fluorescence of the R248W ThT sigmoidal curve. The last time point would be during the plateau phase of the curve at approximately 5 hours after initiation of the assay, whereby aggregates reach an equilibrium phase and stabilize in solution.
In order to target p53 aggregation in the cellular environment, the ADH compounds according to the invention would need to bind and abrogate pre-formed p53 aggregates, as well as prevent additional aggregation. Inhibition of pre-formed aggregates would be a crucial feature of therapeutics that successfully target mutant p53 aggregation in cancer. Using the multi-step thioflavin T assay, where the inhibitor is added to R248W at either elongation or the plateau phases of amyloid formation, 50 μM of the R248W peptide was incubated at 37° C. for 35 minutes before adding an equimolar ratio of the ADH compound (FIG. 1).

| Compound | toxicity in HeLa cells (MTS) (HeLa cells) | toxicity in MCF-7 cells (MTS) [1] | inhibition of R248W mutant p53 aggregation by ADH compounds (ThT fluorescence) (R248W mutant p53 peptide) | effect of ADH compounds on MIA PaCa-2 cell viability (MTS) [2] | toxicity in COS-7 cells (MTS) [3] | abrogation of R248W aggregates at the elongation phase [4] | cytotoxicity of peptides in MIA PaCa-2 cells (MTS) [2] |
| --- | --- | --- | --- | --- | --- | --- | --- |
| CCCCOc1nc(C(=O)Nc2ccc(C(=O)Nc3ccc(C(=O)OC)nc3OCCCN)nc2OCCCN)ccc1[N+](=O)[O-] [ADH-40] | Significant toxicity; also recorded: significantly toxic | No significant toxicity; also recorded: do not induce significant toxicity | inhibit mutant p53 aggregation with varying levels of effectiveness | highly significant toxicity; also recorded: extremely significant effect on cell viability | No significant toxicity; also recorded: do not induce significant toxicity | abrogate aggregation at the elongation phase; also recorded: able to target and abrogate aggregates at the elongation phase |  |
| COC(=O)c1ccc(NC(=O)c2ccc(NC(=O)c3ccc([N+](=O)[O-])c(OC(C)C)n3)c(OCc3ccccc3)n2)c(OCCCN)n1 [ADH-39] |  |  | inhibit mutant p53 aggregation with varying levels of effectiveness |  |  |  |  |
| COC(=O)c1ccc(NC(=O)c2ccc(NC(=O)c3ccc([N+](=O)[O-])c(OCC(=O)O)n3)c(OCc3ccccc3)n2)c(OCC(=O)O)n1 [ADH-17] |  | No significant toxicity; also recorded: do not induce significant toxicity |  | non-toxic effects | No significant toxicity; also recorded: do not induce significant toxicity |  |  |
| COC(=O)c1ccc(NC(=O)c2ccc(NC(=O)c3ccc([N+](=O)[O-])c(OCC(C)C)n3)c(OCCCN)n2)c(OCCCN)n1 [ADH-46] | Significant toxicity; also recorded: significantly toxic | No significant toxicity; also recorded: do not induce significant toxicity | inhibit mutant p53 aggregation with varying levels of effectiveness | highly significant toxicity; also recorded: extremely significant effect on cell viability | No significant toxicity; also recorded: do not induce significant toxicity | abrogate aggregation at the elongation phase; also recorded: able to target and abrogate aggregates at the elongation phase |  |
| COC(=O)c1ccc(NC(=O)c2ccc(NC(=O)c3ccc([N+](=O)[O-])c(OCc4ccccc4)n3)c(OCC(=O)O)n2)c(OCC(=O)O)n1 [ADH-27] |  | No significant toxicity; also recorded: do not induce significant toxicity |  |  | No significant toxicity; also recorded: do not induce significant toxicity |  |  |
| ReACp53: recently developed peptide that targets p53 aggregation, oligoarginine tag, (image prefix) RPILTRITLE (also: oligoarginine tag) [reference compound] | induce significant toxicity; also recorded: significantly toxic | No significant toxicity; also recorded: does not appear to induce toxicity |  |  | No significant toxicity; also recorded: does not appear to induce toxicity |  | induce cell death; also recorded: significantly cytotoxic |
| COC(=O)c1ccc(NC(=O)c2ccc(NC(=O)c3ccc(NC(=O)c4ccc([N+](=O)[O-])c(OCC(C)C)n4)c(OCc4ccccc4)n3)c(OCC(=O)O)n2)c(OCC(=O)O)n1 [ADH-31] |  |  | inhibit mutant p53 aggregation with varying levels of effectiveness |  |  |  |  |
| COC(=O)c1ccc(NC(=O)c2ccc(NC(=O)c3ccc([N+](=O)[O-])c(OCCCN)n3)c(OCc3ccccc3)n2)c(OCCCN)n1 [ADH-37] |  |  | inhibit mutant p53 aggregation with varying levels of effectiveness |  |  |  |  |
